Measured values reported in patent publication EP0565593B1, “REDUCING PESTICIDAL INTERACTIONS IN CROPS” (priority 1990, dated 1992).
Where two headings read alike, the source gives them in different places.

Assays:
Corn [1] = details: […]
Giant foxtail (GIFT) = experiment: whole plant or invertebrate; assay type: in vivo
Corn [2] = test system: Corn
Shattercane (SHCA) = assay type: in vivo; details: […]
Velvetleaf (VELE) [3] = assay type: in vivo, Abutilon theophrasti; details: […]
Velvetleaf (VELE) [4] = experiment: whole plant or invertebrate; assay type: in vivo, Abutilon theophrasti
[5] = observed 9 days later (Table 29)
[6] = observed 9 days later (Table 30)
[7] = […], PPI, 13 days after PPI (Table 31)
[8] = observed 7 days after POE (Table 35)
[9] = observed 7 days after POE (Table 36)
[10] = observed 8 days later (Table 32)
[11] = observed 8 days later (Table 33)
[12] = […], PPI, 14 days after PPI (Table 34)

SMILES	% Inhibition Corn (Corn [1]; [8])	% Inhibition Corn (Corn [1]; [9])	% Inhibition GIFT (Giant foxtail (GIFT); in vivo)	% Inhibition Corn (Corn [2]; in vivo)	% Inhibition SHCA (Shattercane (SHCA); [8])	% Inhibition SHCA (Shattercane (SHCA); [9])	% Inhibition VELE (Velvetleaf (VELE) [3]; [8])	% Inhibition VELE (Velvetleaf (VELE) [3]; [9])	% Inhibition VELE (Velvetleaf (VELE) [4]; in vivo)	further results
O=C(C(Cl)Cl)N1CC(c2ccco2)OC1c1ccccc1 (stereo not drawn) [compound 36]	–	–	–	–	–	–	–	–	–	% Inhibition Corn (Corn [1]; [5]): 45%; % Inhibition Corn (Corn [1]; [6]): 45%; % Inhibition GIFT (Giant foxtail (GIFT); [7]): 75%; % Inhibition Corn (Corn [2]; [7]): 60%; % Inhibition SHCA (Shattercane (SHCA); [5]): 75%; % Inhibition SHCA (Shattercane (SHCA); [6]): 35%; % Inhibition VELE (Velvetleaf (VELE) [3]; [5]): 100%; % Inhibition VELE (Velvetleaf (VELE) [3]; [6]): 80%; % Inhibition VELE (Velvetleaf (VELE) [4]; [7]): 90%
CCOC(=O)c1sc(Br)nc1C(F)(F)F [compound 66]	30%	50%	70%	50%	60%	25%	80%	60%	90%	–
CCCCCCCCOC(=O)c1sc(Cl)nc1C(F)(F)F [compound 63]	30%	55%	70%	65%	70%	40%	80%	65%	90%	–
O=C(C(Cl)Cl)N1CCN(C(=O)C(Cl)Cl)CC1 [compound 3]	–	–	–	–	–	–	–	–	–	% Inhibition Corn (Corn [1]; [5]): 35%; % Inhibition Corn (Corn [1]; [6]): 60%; % Inhibition GIFT (Giant foxtail (GIFT); [7]): 75%; % Inhibition Corn (Corn [2]; [7]): 55%; % Inhibition SHCA (Shattercane (SHCA); [5]): 70%; % Inhibition SHCA (Shattercane (SHCA); [6]): 40%; % Inhibition VELE (Velvetleaf (VELE) [3]; [5]): 95%; % Inhibition VELE (Velvetleaf (VELE) [3]; [6]): 70%; % Inhibition VELE (Velvetleaf (VELE) [4]; [7]): 95%
CC(C)(C)c1ccccc1SCCC#N [compound 74]	65%	60%	85%	70%	80%	20%	80%	70%	90%	–
NC(=S)COC(c1ccccc1)c1ccccc1 [compound 46]	–	–	–	–	–	–	–	–	–	% Inhibition Corn (Corn [1]; [10]): 50%; % Inhibition Corn (Corn [1]; [11]): 55%; % Inhibition GIFT (Giant foxtail (GIFT); [12]): 60%; % Inhibition Corn (Corn [2]; [12]): 65%; % Inhibition SHCA (Shattercane (SHCA); [10]): 70%; % Inhibition SHCA (Shattercane (SHCA); [11]): 25%; % Inhibition VELE (Velvetleaf (VELE) [3]; [10]): 90%; % Inhibition VELE (Velvetleaf (VELE) [3]; [11]): 70%; % Inhibition VELE (Velvetleaf (VELE) [4]; [12]): 85%
O=C(O)COc1cc(C(F)(F)F)cc(C(F)(F)F)c1 [compound 71]	20%	45%	70%	30%	65%	30%	85%	75%	90%	–
